# From patent US7851510B2, “Gossypol derivatives, production method thereof and uses of same” (Centre National de la Recherche Scientifique (C.N.R.S.), priority 2004, dated 2010)
# Tested on: KB tumour cell line
# Experiment: Cytotoxicity vis-à-vis the KB tumour cell line
# Type: cell-based
# Conditions: Homo sapiens
# Description: The cytotoxicity of the compound vis-à-vis the KB tumour cell line was measured as is described in Dao et al. (2003) Bioorg. Med. Chem. 11:2001-2006.
row,SMILES,IC50 [µM]
1,"CC1=C(C2=C(C)C(=O)c3c(c(CO)c(O)c(O)c3C(C)C)C2=O)C(=O)c2c(CO)c(O)c(O)c(C(C)C)c2C1=O [(5), 6,7,6′,7′-tetrahydroxy-8,8′-bis-hydroxymethyl-5,5′-diisopropyl-3,3′-dimethyl-[2,2′]binaphthalenyl-1,4,1′,4′-tetraone]",1
2,"CC1=C(C2=C(C)C(=O)c3c(c(CSc4ccccc4)c(O)c(O)c3C(C)C)C2=O)C(=O)c2c(CSc3ccccc3)c(O)c(O)c(C(C)C)c2C1=O [(7), 6,7,6′,7′-tetrahydroxy-5,5′-diisopropyl-3,3′-dimethyl-8,8′-bis-phenylsulphanylmethyl-[2,2′]binaphthalenyl-1,4,1′,4′-tetraone]",4
3,"CC1=C(C2=C(C)C(=O)c3c(c(CSc4ccc(C)cc4)c(O)c(O)c3C(C)C)C2=O)C(=O)c2c(CSc3ccc(C)cc3)c(O)c(O)c(C(C)C)c2C1=O [(8), 6,7,6′,7′-tetrahydroxy-5,5′-diisopropyl-3,3′-dimethyl-8,8′-bis-p-tolylsulphanylmethyl-[2,2′]binaphthalenyl-1,4,1′,4′-tetraone]",6.5
4,"COc1ccc(SCc2c(O)c(O)c(C(C)C)c3c2C(=O)C(C2=C(C)C(=O)c4c(c(CSc5ccc(OC)cc5)c(O)c(O)c4C(C)C)C2=O)=C(C)C3=O)cc1 [(9), 6,7,6′,7′-tetrahydroxy-5,5′-diisopropyl-8,8′-bis-(4-methoxy-phenylsulphanylmethyl)-3,3′-dimethyl-[2,2′]binaphthalenyl-1,4,1′,4′-tetraone]",6.5
5,"CC1=C(C2=C(C)C(=O)c3c(c(CSc4ccc(Cl)cc4)c(O)c(O)c3C(C)C)C2=O)C(=O)c2c(CSc3ccc(Cl)cc3)c(O)c(O)c(C(C)C)c2C1=O [(10), 6,7,6′,7′-tetrahydroxy-5,5′-diisopropyl-8,8′-bis-(4-chloro-phenylsulphanylmethyl)-3,3′-dimethyl-[2,2′]binaphthalenyl-1,4,1′,4′-tetraone]",3
6,"CC1=C(C2=C(C)C(=O)c3c(c(CSc4c(F)c(F)cc(F)c4F)c(O)c(O)c3C(C)C)C2=O)C(=O)c2c(CSc3c(F)c(F)cc(F)c3F)c(O)c(O)c(C(C)C)c2C1=O [(11), 6,7,6′,7′-tetrahydroxy-5,5′-diisopropyl-8,8′-bis-(2,3,5,6-tetrafluoro-phenylsulphanylmethyl)-3,3′-dimethyl-[2,2′]binaphthalenyl-1,4,1′,4′-tetraone]",8.5
